Numbered stars: 1 amine (or outer) side, 2 acyl side, 3 side chain; on linkers, the order of the positions; unused ones are H or OH. Bridge positions count the residues as written; N and C are the ends. Square brackets hold non-standard residues; d marks the D form. Peptide text beside a SMILES is read from it. I, II: the chains in the order shown. Actinocin(9to1) = Cc1c2oc3c(C)ccc(C(=O)[*:1])c3nc-2c(C(=O)[*:2])c(N)c1=O; NMeV = CN[C@H](C(=O)O)C(C)C; Sar = CNCC(=O)O
How the values were obtained:
[1] = tested on: Med1-GFP condensates in mESCs; experiment: Condensate size in Med1-GFP mESCs after transcription inhibition; type: cell-based, mouse; conditions: 30 minutes; 100 μM DRB or 1 μM Actinomycin-D; 3D super-resolution microscopy
Experimental: For small molecule inhibition experiments, cells were treated with 100 μM DRB (Sigma), or 1 μM Actinomycin-D (Sigma) in 2i media (detailed above) for 30 minutes, then imaged. For wash-out experiments, media was replaced with fresh 2i media and cells were allowed to recover for 1 hour, then the cells were imaged.
Cells with endogenously-tagged Med1-GFP (Sabari et al., 2018) were plated on glass-bottom dishes (Mattek) coated with poly-L-ornithine (Sigma) and laminin (ThermoFisher). Mock (DMSO) and treated cells were imaged on a LSM 880 Confocal Microscope with Airyscan to obtain super-resolution z-stacks for at least 8 different fields containing multiple cells. For quantification, a manual threshold was applied equally across all conditions to remove background, and the size of Med1-GFP puncta was quantified in 3D using the 3D object counter plugin (Fiji/ImageJ).

[2] = tested on: reconstituted mammalian transcription system (Pol II, general transcription factors, Mediator, Gal4); experiment: Reconstituted in vitro transcription assay (droplets and qRT-PCR output); type: biochemical; conditions: 2 mM NTPs, 200 mM NaCl, 500 nM heparin, spermine at concentrations predicted to balance charge; for partitioning of template DNA into droplets: Cy3-labeled template DNA; for droplet area: added to the transcription reaction; for transcription (levels of RNA synthesis): qRT-PCR of template-derived RNA
Experimental: For the size analysis of droplets formed in the reconstituted transcription assays (FIG. 3), brightfield images were subtracted by a median-filtered image (px=21), and droplets were manually segmented and their areas measured using ImageJ.
The reconstituted in vitro transcription by RNA polymerase II was performed as previously described (Flores et al., 1992; LeRoy et al., 2008, 2019; Orphanides et al., 1998) with some modifications. A 1000 bp template DNA (unlabeled or Cy-3 labeled at 3′ end) containing adenovirus major late promoter, five Gal4 binding sites, TATA-box sequence and 561 bp from eGFP sequence was used. First, pre-initiation complex was assembled at RT for 15 min by mixing the following components: 50 nM RNA polymerase II enriched for hypophosphorylated CTD, 50 nM general transcription factors (TFIIA-B-D-E-F-H), and 5.75 nM template DNA, in a buffer containing 10 mM HEPES pH 7.5, 65 mM NaCl, 6.25 mM MgCl2, and 6.25 mM Sodium butyrate. Next, 10 nM Mediator complex and 10 nM GAL4 (Gal4 DNA binding domain fused to activation domain of VP16) were added to the reaction. Last, nucleotide mix containing 0.375 mM ATP, CTP, UTP, GTP (Invitrogen), 0.01 U RNase Inhibitor (Invitrogen), 1.25% PEG-8000 were added together with one of the following: a) various amounts of purified exogenous Pou5f1 RNA (0-500 nM) b) spermine (Sigma, S4264) c) extra NTPs (Invitrogen) d) extra NaCl e) heparin (Sigma, H3393). The reaction was incubated at 30° C. for 2 hr. RNA isolation was performed using RNeasy kit (Qiagen) by including a spike-in RNA control and an RNA carrier. Purified RNAs were treated with ezDNase (Invitrogen) for 30 min at 37° C. to eliminate the template DNA. Reverse transcription was performed using Superscript IV (Invitrogen) and qPCR was performed with SYBR Green Real Time PCR master mix (Invitrogen) to quantify the template derived transcriptional output. The Ct values of the reactions were normalized to the spike-in RNA control. The concentration of template derived transcriptional output was calculated by using a standard curve of qRT-PCR Ct values generated by known amounts of serially diluted GFP RNA.
To visualize the droplets formed in the reconstituted transcription assay, using a micropipette (2-20 μL), 5 μL of the reactions were loaded onto a homemade chamber, which was prepared by attaching coverslips to a glass slide by parallel strips of double-sided tape (Sabari et al., 2018). After the droplets were settled on the glass coverslip, the images were collected by using RPI Spinning Disk confocal microscope with a 100× objective. To account for camera artifacts in the images, brightfield Images of droplets from reconstituted assays were subjected to a white tophat filter with a disk element radius of 21 using the MorphoLib plugin in ImageJ, then a Gaussian filter (sigma=1) was applied.

MED1-IDR = molecular target: T1, MED1-IDR (Homo sapiens, UniProt Q15648); experiment: In vitro droplet assay with MED1-IDR-GFP; type: biochemical; conditions: alternative polyanions instead of RNA
T1 construct: Amino acids included; 6xHIS; made in house; host or cells: LOBSTR cells (E. coli), pET plasmid, Ni-NTA purification
Experimental: Charge-balance calculations were performed (FIGS. 2, 9, 10 and 11) employing the following method. Net protein charge per molecule was calculated as Cp=#(R, K)−#(D, E) for the relevant sequence including the GFP tag. RNA charge per molecule was calculated as Cr=−(# […]), assuming an approximate charge of −1 per nucleotide (Lin et al., 2019). Next, the charge balance ratio was computed at a particular RNA and protein concentration as:
The effective concentration of MED1-IDR in the assays was 1000 nM. The results were not quantitatively affected by inclusion/exclusion of the partial charge on Histidine residues, partly due to their low frequency on the protein sequences. For Heparin, a charge of roughly −3 per monomer was employed (Lin et al., 2020) and for single-stranded DNA, a charge of −1 per nt was employed. The fit is quantified by calculating Pearson correlation coefficient (r) was calculated between the median droplet partition value at different concentrations and the relevant charge-balance ratios and reported in FIGS. 2, 9, 10, and 11. A higher correlation implies that experimental data follow a similar qualitative trend as the estimated charge-balance curves. The code for performing these calculations are available at: […]

Mediator complex = tested on: T2, Mediator complex; experiment: In vitro droplet assay with purified Mediator complex; type: biochemical, human; conditions: 6-400 nM RNA added to 200 nM purified Mediator complex
T2 construct: Purification of Human Mediator Complex from HeLa Nuclear Extract; endogenous in cells; host or cells: HeLa nuclear extract, multi-step column purification
Experimental: HeLa nuclear protein extract (4 g) was prepared as described in (Dignam et al., 1983). Nuclear extract was dialyzed against BC100: BC buffer, pH 7.5+100 mM KCl (20 mM Tris-HCl, 20 mM B-Mercaptoethanol, 0.2 mM PMSF, 0.2 mM EDTA, 10% glycerol (v/v) and 100 mM KCl). The extract was fractionated on a phosphocellulose column (P11) with BC buffer containing 0.1, 0.3, 0.5 and 1M KCl. The Mediator complex eluted in the 0.5M KCL (BC500) fraction. This fraction was dialyzed against BC100 and loaded on a DEAE Cellulose column and sequentially fractionated with BC buffer containing 0.1, 0.3 and 0.5M KCl. […] This fraction was then directly loaded onto a DEAE-5 PW column (TSK) and eluted with a linear KCl gradient from 0.1 to 1M KCl in BC buffer. The Mediator complex eluted between 0.4 and 0.6M KCl. The fractions containing Mediator were pooled and dialyzed against BD700: BD buffer, (20 mM Hepes pH 7.5, 20 mM β-Mercaptoethanol, 0.2 mM PMSF, 0.2 mM EDTA, 10% glycerol, and 700 mM (NH4)2SO4). This fraction was then loaded onto a Phenyl-Sepharose Hydrophobic Interaction Chromatography (HIC) column and eluted with a linear reverse gradient from 0.7 to 0.025M (NH4)2SO4 in BD buffer. The Mediator complex eluted between 0.3 and 0.1M (NH4)2SO4. […]

T1 sequence (Q15648 948-1573): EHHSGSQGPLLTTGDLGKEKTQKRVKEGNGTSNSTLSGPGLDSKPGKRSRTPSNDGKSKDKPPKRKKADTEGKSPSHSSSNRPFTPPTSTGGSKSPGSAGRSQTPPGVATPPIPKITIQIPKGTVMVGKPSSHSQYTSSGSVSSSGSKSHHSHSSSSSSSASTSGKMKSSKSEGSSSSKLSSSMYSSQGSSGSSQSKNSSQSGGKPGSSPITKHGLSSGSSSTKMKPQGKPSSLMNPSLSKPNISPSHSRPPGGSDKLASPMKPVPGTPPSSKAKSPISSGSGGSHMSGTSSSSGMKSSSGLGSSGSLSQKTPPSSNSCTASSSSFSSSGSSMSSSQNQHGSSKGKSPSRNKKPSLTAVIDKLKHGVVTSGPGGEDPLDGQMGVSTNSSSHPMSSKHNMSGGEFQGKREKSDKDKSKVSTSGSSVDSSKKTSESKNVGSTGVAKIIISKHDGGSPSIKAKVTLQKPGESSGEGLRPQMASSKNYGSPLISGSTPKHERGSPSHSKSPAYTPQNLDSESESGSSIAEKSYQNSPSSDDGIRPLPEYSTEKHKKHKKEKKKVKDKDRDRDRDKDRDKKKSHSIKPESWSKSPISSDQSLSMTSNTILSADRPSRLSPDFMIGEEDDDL

| Molecule | partitioning of template DNA into droplets [2] | droplet area [2] | transcription (levels of RNA synthesis) [2] | fit of MED1-IDR partitioning to the charge balance model (MED1-IDR) | also measured |
| --- | --- | --- | --- | --- | --- |
| Cc1c2oc3c(C)ccc(C(=O)N[C@@H]4C(=O)N[C@H](C(C)C)C(=O)N5CCC[C@H]5C(=O)N(C)CC(=O)N(C)[C@@H](C(C)C)C(=O)O[C@@H]4C)c3nc-2c(C(=O)N[C@@H]2C(=O)N[C@H](C(C)C)C(=O)N3CCC[C@H]3C(=O)N(C)CC(=O)N(C)[C@@H](C(C)C)C(=O)O[C@@H]2C)c(N)c1=O [Actinomycin-D] (I: T[dV]P[Sar][NMeV] / II: T[dV]P[Sar][NMeV]; ester I:1-I:C, II:1-II:C; linker I:N-II:N via Actinocin(9to1)) | – | – | – | – | increase in volume of Med1-GFP condensates [1]: ~2 fold |
| [Cl-].[Na+] [NaCl] | reductions | reductions | reductions | – | – |
| NCCCNCCCCNCCCN [spermine] | increased | increased | increased | – | – |
| heparin | reductions | reductions | reductions | charge balance model also held | – |
| ssDNA: single-stranded DNA, 117 nt, SEQ ID NO: 51, alternative polyanion (nucleic acid, DNA, backbone and methylation of C not given here) DNA: GGTTCTGCCGCAGGTGGATCCGGTATGTCCACCGCCACGACAGTCGCCCCCGCGGGGATCCCGGCGACCCCGGGCCCTGTGAACCCACCCCCCCCGGAGGTCTCCAACCCCAGCAAG | – | – | – | charge balance model also held | – |
| Trim28 enhancer RNA: enhancer RNA transcribed from the Trim28 super-enhancer, 594 nt, SEQ ID NO: 46 (nucleic acid, 47) AAATCTTGGAGAGAGTAGGACCTGAGCTGTTTCCTATTTCTACTACTTCCATAGACATCCATGGGTCTCCTTTGGTTCTTACCTTAAACTGCAGTTCTAGAGGCTCTTCTGGGGTTGTAAACTGCCCTTCCCCAACTCAGGAGCTCCCATTCCCTCCCCTTCCTAAACTGGCCCTACTTGTTCGCTCTACTTTATCTTGCCAGGGGTTGTAACAGCCTCCAATCTGTCTTGGATCAGGAAGCAGTTTCCATGGGGTATTTTAAGTGTAAGTTCCCCGGTGAAATGGAAACAAAAAGAATAAGGTATTCTGGGGACAGTGTAGGCCCACTAGGGTGTAGCTTGTTTTGTAAACACAGGACCTGAGTTTTGGACTTTGCCCTGGATTGTACCTGTCCCAGTGGGTTACCTTAGATGACACTAGCTTCATAATGCAAGAGGAGGTTAAGATGCTGGCTAGCGTTACCCACTTTGAAGGTACTGGAAAAGGAAGACCTGATTTACCCAAAAGAGGGAGATCTCTGTGCTTCTACCGCTTTAATTTTTTTTTTCTTTTTTTAAATATTTTTGCAGGACTGGTCACTGTAACTTTTTCCC | – | – | – | – | RNA concentration at which droplet sizes peaked (Mediator complex): 100 nM; effect on the size of Mediator/RNA droplets (Mediator complex): dose-dependent effect |

Source: patent US20240309365A1, “MODULATING TRANSCRIPTIONAL CONDENSATES” (Whitehead Institute for Biomedical Research, priority 2020, published 2024)
